We go through 22 substances from patent publication US20100119483A1, “PEPTIDE VIRAL ENTRY INHIBITORS” (Schering Corporation, priority 2004, published 2010).

Test [1] has as its system amphotropic murine leukemia virus. Put plainly: AMLV pseudotyped virus entry counter-screen, same infection protocol. The class given is cell-based. The conditions noted are these: for luciferase units, AMLV entry: duplicates; for AMLVpp % inh: peptide library screen, cell entry inhibition vs uninhibited control. The method, then:
Infection of hepatoma cell lines with HCV pseudotype particles and screen for inhibitory peptides. The hepatoma cells, Huh7, was seeded at 8000 cells in 90 ul medium in 96-well plate. In the case of the inhibitor screen, the inhibitor was incubated with cells for one hour at 37° C. and then 50 ul viral supernatant was added to the cells 24 hours after seeding. The viral stock was pre-tittered and diluted to yield approximately 10,000 to 20,000 RLU. The cells were incubated at 37° C. with 5% CO2 for additional 72 hours and were harvested for luciferase assay. Peptide stocks were prepared in 100% DMSO at 10 mg/ml and were first screened at 100 ug/ml and then a dose responsive curve was generated with 10 points 3-fold titration starting from 100 ug/ml.
The specificity of the peptides were counter-screened with AMLV and HIV pseudotyped viruses using the same infection protocol.

The next test relates to HCV pseudoparticles. Put plainly: HCV pseudoparticle (HCVpp) entry assay in Huh7 hepatoma cells, luciferase readout. As to conditions: for luciferase units, HCV entry: duplicates; for HCVpp % inh: peptide library screen, first screened at 100 ug/ml, cell entry inhibition vs uninhibited control. The format is cell-based, hepatitis C virus. An outline of the steps: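 Pseudoparticles carrying HCV E1/E2 on an HIV luciferase backbone were produced in 293T cells; peptide was pre-incubated 1 h at 37 °C with Huh7 cells, then virus added and luciferase read after 72 h. Dose-response used 10-point 3-fold titration from 100 ug/ml; envelope-less particles controlled non-specific entry.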

Where “and” joins values, the source holds several entries; their conditions need not be identical. Equal entries are not always repeated. Ends that are not written are not given here.

Take “LKLFEVYLILWLA (HCV peptide) [SEQ ID NO: 138, scrambled 13-mer]”: the “luciferase units, AMLV entry” value in test [1] (0.04115226 uM of peptide, listed as scrambled SEQ ID NO: 106) is 43854 luciferase units and 39721 luciferase units and 46556 luciferase units and 44480 luciferase units and 40734 luciferase units and 47413 luciferase units; in test [1] (0.1234568 uM of peptide, listed as scrambled SEQ ID NO: 106), 39298 luciferase units and 28711 luciferase units and 46132 luciferase units and 49974 luciferase units and 42958 luciferase units and 51726 luciferase units; in test [1] (0.3703704 uM of peptide, listed as scrambled SEQ ID NO: 106) it was 48158 luciferase units and 45212 luciferase units and 49139 luciferase units and 49219 luciferase units and 51358 luciferase units and 50551 luciferase units; in test [1] (1.111111 uM of peptide, listed as scrambled SEQ ID NO: 106), 49084 luciferase units and 39443 luciferase units and 53349 luciferase units and 51341 luciferase units and 46069 luciferase units and 46019 luciferase units; in test [1] (3.333333 uM of peptide, listed as scrambled SEQ ID NO: 106) it was 50674 luciferase units and 41738 luciferase units and 60859 luciferase units and 50020 luciferase units and 51236 luciferase units and 49388 luciferase units; in test [1] (30 uM of peptide, listed as scrambled SEQ ID NO: 106) it was 87785 luciferase units and 60410 luciferase units and 83010 luciferase units and 77083 luciferase units and 85612 luciferase units and 79287 luciferase units. For the same substance, the “luciferase units, HCV entry” value is 12287 luciferase units and 13159 luciferase units and 13838 luciferase units and 13589 luciferase units and 10645 luciferase units and 10230 luciferase units in the test with HCV pseudoparticles (0.04115226 uM of peptide, listed as scrambled SEQ ID NO: 138); 9257 luciferase units and 8961 luciferase units and 11382 luciferase units and 10746 luciferase units and 7229 luciferase units and 6598 luciferase units in the test on HCV pseudoparticles (0.1234568 uM of peptide, listed as scrambled SEQ ID NO: 138); 7620 luciferase units and 8597 luciferase units and 9180 luciferase units and 5716 luciferase units and 8494 luciferase units and 8291 luciferase units in the test on HCV pseudoparticles (0.3703704 uM of peptide, listed as scrambled SEQ ID NO: 138); 6456 luciferase units and 7681 luciferase units and 9683 luciferase units and 9482 luciferase units and 9053 luciferase units and 7359 luciferase units in the test on HCV pseudoparticles (1.111111 uM of peptide, listed as scrambled SEQ ID NO: 138); 7729 luciferase units and 11535 luciferase units and 12632 luciferase units and 8653 luciferase units and 8028 luciferase units and 10288 luciferase units in the test on HCV pseudoparticles (3.333333 uM of peptide, listed as scrambled SEQ ID NO: 138); 7047 luciferase units and 5340 luciferase units and 7406 luciferase units and 5158 luciferase units and 5107 luciferase units and 5826 luciferase units in the test on HCV pseudoparticles (30 uM of peptide, listed as scrambled SEQ ID NO: 138). The “activity compared to the wild type 13-mer peptide” value with HCV pseudoparticles (HCVpp entry inhibition, in words) is “still showed some activity, though weakened”.
Turning to “A-I-K-W-E-Y-V-L-L-L-F-L-L [SEQ ID NO: 85]”, the “luciferase units, AMLV entry” value was 55532 luciferase units and 43767 luciferase units and 32138 luciferase units and 44812 luciferase units and 41172 luciferase units and 40068 luciferase units in test [1] (0.01371742 uM of peptide (three lines)); 32390 luciferase units and 42604 luciferase units in test [1] (0.04115226 uM of peptide); 41483 luciferase units and 44739 luciferase units in test [1] (0.1234568 uM of peptide); 44659 luciferase units and 43073 luciferase units in test [1] (0.3703704 uM of peptide); 42996 luciferase units and 48628 luciferase units in test [1] (1.111111 uM of peptide); 92146 luciferase units and 118949 luciferase units in test [1] (3.333333 uM of peptide). The “luciferase units, AMLV entry” value in test [1] (10 uM of peptide) is 129890 luciferase units and 172763 luciferase units; in test [1] (30 uM of peptide) it was 72040 luciferase units and 83257 luciferase units. The “% control (HCVpp entry), alanine scanning” value is 79 % control and 81 % control and 101 % control and 74 % control and 113 % control and 112 % control with HCV pseudoparticles (0.1 nM of peptide (printed for three rows), two values per peptide and row); 79 % control and 96 % control in the test with HCV pseudoparticles (0.3 nM of peptide, two values per peptide); 95 % control and 83 % control in the test with HCV pseudoparticles (1 nM of peptide, two values per peptide); 71 % control and 88 % control in the test on HCV pseudoparticles (3 nM of peptide, two values per peptide); 90 % control and 107 % control with HCV pseudoparticles (10 nM of peptide, two values per peptide); 62 % control and 57 % control with HCV pseudoparticles (30 nM of peptide, two values per peptide). In addition, the “% control (HCVpp entry), alanine scanning” value with HCV pseudoparticles (100 nM of peptide, two values per peptide) is 45 % control and 50 % control; in the test on HCV pseudoparticles (300 nM of peptide, two values per peptide) it was 18 % control and 22 % control; in the test with HCV pseudoparticles (10000 nM of peptide, two values per peptide) it was 13 % control and 18 % control; in the test with HCV pseudoparticles (30000 nM of peptide, two values per peptide) it was 70 % control and 103 % control. The “luciferase units, HCV entry” value is 7203 luciferase units and 6444 luciferase units with HCV pseudoparticles (0.04115226 uM of peptide); 3658 luciferase units and 3430 luciferase units in the test with HCV pseudoparticles (0.3703704 uM of peptide); 4380 luciferase units and 2918 luciferase units with HCV pseudoparticles (1.111111 uM of peptide); 2239 luciferase units and 2490 luciferase units with HCV pseudoparticles (3.333333 uM of peptide); 3393 luciferase units and 2865 luciferase units in the test with HCV pseudoparticles (10 uM of peptide). Moreover, in the test on HCV pseudoparticles (percentage of hepatitis C virus cellular entry at 30 μM peptide vs uninhibited control), the “% of control at ~30 uM” value turned out to be 20%.
On to “L-F-T-F-S-P-R-R-H-E-T-V-Q-D-C-N [SEQ ID NO: 17]”, for which the AMLVpp % inh in test [1] was 16%. In addition, the HCVpp % inh with HCV pseudoparticles is 9%.
For “D-C-S-N-A-S-I-V-Y-E-A-A-D-M-I-M [SEQ ID NO: 5]”, in test [1], the AMLVpp % inh was −2%. Besides, the HCVpp % inh with HCV pseudoparticles is on record as −4%.
For “L-P-A-L-S-T-G-L-I-H-L-H-Q-N-V-V [SEQ ID NO: 73]”, the AMLVpp % inh in test [1] amounted to 0%. For the same substance, in the test with HCV pseudoparticles, the HCVpp % inh amounted to 19%.
Turning to “V-D-L-L-V-G-A-A-A-L-C-S-A-M-Y-V [SEQ ID NO: 13]”, the AMLVpp % inh in test [1] is given as −13%. The HCVpp % inh with HCV pseudoparticles turned out to be 39%.
For the substance “V-C-A-C-L-W-M-M-L-L-I-A-Q-A-E-A [SEQ ID NO: 80]”, the AMLVpp % inh in test [1] is on record as 7%. In the test with HCV pseudoparticles, the HCVpp % inh amounted to 16%.
As to “K-T-L-T-C-P-T-D-C-F-R-K-H-P-E-A [SEQ ID NO: 58]”, the AMLVpp % inh in test [1] is listed as 13%. In addition, the HCVpp % inh with HCV pseudoparticles came out at 50%.
Take “P-R-C-L-V-H-Y-P-Y-R-L-W-H-Y-P-C (PRCLVHYPYRLWHYPC; HCV peptide) [SEQ ID NO: 62]”: the AMLVpp % inh in test [1] is reported as −42%. Also, in the test on HCV pseudoparticles, the HCVpp % inh turned out to be 10%.
Regarding “S-V-F-L-V-A-Q-L-F-T-F-S-P-R-R-H [SEQ ID NO: 16]”, the AMLVpp % inh in test [1] was −148%. Further, the HCVpp % inh with HCV pseudoparticles is on record as 3%.
With “E-L-S-P-L-L-L-S-T-T-E-W-Q-V-L-P [SEQ ID NO: 70]”, in test [1], the AMLVpp % inh was determined as 44%. Moreover, in the test with HCV pseudoparticles, the HCVpp % inh was determined as 10%.
For the substance “W-F-G-C-T-W-M-N-S-T-G-F-T-K-T-C (WFGCTWMNSTGFTKTC; HCV peptide) [SEQ ID NO: 54]”, in test [1], the AMLVpp % inh is reported as −15%. In the test on HCV pseudoparticles, the HCVpp % inh was 39%.
“V-G-G-V-E-H-R-L-E-A-A-C-N-W-T-R (VGGVEHRLEAACNWTR; HCV peptide) [SEQ ID NO: 66]”: in test [1], the AMLVpp % inh came to 34%. Also, the HCVpp % inh in the test on HCV pseudoparticles came to 22%.
For the substance “N-D-S-L-N-T-G-F-L-A-A-L-F-Y-V-H [SEQ ID NO: 37]”, in test [1], the AMLVpp % inh amounted to 15%. In addition, the HCVpp % inh in the test on HCV pseudoparticles was found to be 14%.
For “Y-G-I-G-S-A-V-V-S-F-A-I-K-W-E-Y [SEQ ID NO: 76]”, the AMLVpp % inh in test [1] is reported as 24%. The HCVpp % inh in the test with HCV pseudoparticles is reported as 7%.
With “G-H-V-T-G-H-R-M-A-W-D-M-M-M-N-W [SEQ ID NO: 20]”, the AMLVpp % inh in test [1] is reported as 6%. In addition, in the test on HCV pseudoparticles, the HCVpp % inh is 43%.
Turning to “P-Y-R-L-W-H-Y-P-C-T-V-N-F-T-I-F (PYRLWHYPCTVNFTIF; HCV peptide) [SEQ ID NO: 63]”, in test [1], the AMLVpp % inh came to 3%. Moreover, the HCVpp % inh in the test on HCV pseudoparticles is listed as 44%.
On to “D-V-L-L-L-N-N-T-R-P-P-Q-G-N-W-F [SEQ ID NO: 52]”, for which the AMLVpp % inh in test [1] worked out at 16%. Also, in the test on HCV pseudoparticles, the HCVpp % inh is recorded as 10%.
As to “L-E-D-R-D-R-S-E-L-S-P-L-L-L-S-T (LEDRDRSELSPLLLST; not fully specified (C-terminus); printed as L-E-D-R-D-R-S-E-L-S-P-L-L-L-S-T) [SEQ ID NO: 69]”, the AMLVpp % inh in test [1] was determined as 1%. Besides, the HCVpp % inh with HCV pseudoparticles is on record as −15%.
The like results for “S-T-T-E-W-Q-V-L-P-C-S-F-T-T-L-P [SEQ ID NO: 71]” were, in that order, 18% and 44%.
As for “E-Y-V-L-L-L-F-L-L-L-A-D-A-R-V-C [SEQ ID NO: 78]”, the AMLVpp % inh in test [1] is 34%. For the same substance, in the test with HCV pseudoparticles, the HCVpp % inh worked out at 38%.
On to “Y-V-G-D-L-C-G-S-V-F-L-V-A-Q-L-F [SEQ ID NO: 15]”, for which the AMLVpp % inh in test [1] is −31%. The HCVpp % inh in the test on HCV pseudoparticles came to 16%.
